Measured values reported in patent publication US20140377340A1, “HLA-DR BINDING PEPTIDES AND THEIR USES” (priority 2007, published 2014).

How the values were obtained:
[1] = molecular target: T1, purified HLA DRB1*0404 (Homo sapiens, UniProt P01903+P01911, A100R/A169T/F76Y/I96L/K127E/L162R/M171V/N62H/P40V/Q125Y/R42H/S133A/S149N/S66Y/V209L/W38E); test: HLA-DR radioligand binding inhibition assay, DRB1*0404; conditions: IC50 nM purified HLA DRB1 *0404, purified HLA DRB1*0404
T1 construct: purified from EBV transformed homozygous cell lines or single MHC allele transfected 721.221, C1R, or fibroblast lines; made in house
Procedure: (§1) Instead, wells of an opaque white 96-well Optiplate (Packard) are coated with 3 μg (100 μl@ 30 μg/ml) of HLA-specific antibody (Ab) that “capture” complexes of radiolabeled MHC and unlabeled peptide transferred from the molecular binding assay plate in 100 μl of 0.05% NP40/PBS. After a 3-hour incubation period, the supernatant is decanted and scintillation fluid (Microscint 20) added. Captured complexes are then measured on a microplate scintillation and luminescence counter (TopCount NXTTM; Packard).
(§2) HLA-DR purification. Fifteen distinct HLA-DR molecules were used in quantitative assays to measure the binding of peptides to solubilized HLA-DR molecules. […] Briefly, columns of inactivated Sepharose CL4B and Protein A Sepharose were used as pre-columns. HLA-DR molecules were captured by passage of lysates over LB3.1 monoclonal antibody (anti-HLA-DRA) columns. Antibody columns were washed with 10 mM Tris-HCL, pH8.0 with 1% (v/v) NP-40, followed by PBS containing 0.4% (w/v) n-octylglucoside.
(§3) Briefly, 1-10 nM of radiolabeled peptide was co-incubated for 2 days at either room temperature or 37° C. with 1 μM to 1 nM purified HLA-DR molecules in the presence of a cocktail of protease inhibitors. Assays were performed at various pH conditions, ranging from pH 4 to pH 7. […] After incubation, the percentage of HLA-DR-bound radioactivity is determined by capturing HLA-DR/peptide complexes on Optiplates (Packard Instruments, Meriden, Conn.) coated with the LB3.1 antibody and determining bound counts per minute using the TopCount microscintillation counter (Packard Instruments).

[2] = molecular target: T2, purified HLA DRB1*0405 (Homo sapiens, UniProt P01903+P01911, A100R/A169T/D86S/F76Y/I96L/K127E/L162R/M171V/N62H/P40V/Q125Y/R42H/S133A/S149N/S66Y/V115G/V209L/W38E); test: HLA-DR radioligand binding inhibition assay, DRB1*0405; conditions: IC50 nM purified HLA DRB1 *0405, purified HLA DRB1*0405
T2 construct: purified from EBV transformed homozygous cell lines or single MHC allele transfected 721.221, C1R, or fibroblast lines; made in house
Method in brief: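 First, HLA-DR was purified from lysates on LB3.1 columns. Then 1 μM to 1 nM protein was incubated 2 days with 1-10 nM radiolabeled peptide at pH 4 to 7. Finally, complexes were captured for 3 hours and bound cpm determined.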

[3] = molecular target: T3, purified HLA DRB3*0101 (Homo sapiens, UniProt P01903+P79483); test: HLA-DR radioligand binding inhibition assay, DRB3*0101; conditions: IC50 nM purified HLA DRB3 *0101, purified HLA DRB3*0101
T3 construct: purified from EBV transformed homozygous cell lines or single MHC allele transfected 721.221, C1R, or fibroblast lines; made in house
Procedure: as §1
as §2, with “n-octylglucoside. […] The pH was reduced to 8.0 and the eluates were concentrated by centrifugation in Centriprep 30 concentrators at 2000 rpm (Amicon, Beverly, Mass.).” for “n-octylglucoside.”
as §3, with “Instruments). […] Competitor peptides are tested in 2-4 complete, independent experiments, at concentrations ranging from […].” for “Instruments).”

[4] = system: short term T cell lines from breast or ovarian cancer patients; test: IFN-γ ELISpot analysis of short term T cell lines (peptide versus protein fragment; natural processing); type: cell-based, human; conditions: T cell lines respond to culture peptide and to protein fragment; FIGS. 5 and 6
Description: IFN-γ ELISpot analysis of short term T cell lines generated against HER-2/neu peptides, p53 (Panel A), p83 (Panel B), p88 (Panel C) and p885 (Panel D). […] Each bar is the mean (s.e.m.) of three replicates.
FIG. 6 is identical to FIG. 5 except that the results were obtained using IGFBP-2 derived helper epitopes.

[5] = system: 15 different HLA-DR molecules; test: HLA-DR binding assays, panel of 15 different HLA-DR molecules (breadth of binding); conditions: number of the 15 HLA-DR molecules bound (binders: 1000 nM or better)

IC50 [1] [nM] | IC50 [2] [nM] | IC50 [3] [nM] | Total XRN [5] | SMILES | naturally processed and presented antigen [4]
27 | 845 | > 20000 | – | CC(C)C[C@H](NC(=O)[C@H](CCC(=O)O)NC(=O)[C@@H](NC(=O)[C@@H](N)CCC(=O)O)[C@@H](C)O)C(=O)N[C@@H](CCCNC(=N)N)C(=O)N[C@@H](CCCCN)C(=O)N[C@H](C(=O)N[C@@H](CCCCN)C(=O)N[C@H](C(=O)N[C@@H](CC(C)C)C(=O)NCC(=O)N[C@@H](CO)C(=O)NCC(=O)N[C@@H](C)C(=O)N[C@@H](Cc1ccccc1)C(=O)O)C(C)C)C(C)C [Peptide 9019.0073] | –
– | – | – | 10 | CC(C)C[C@H](NC(=O)[C@H](CC(C)C)NC(=O)[C@H](CC(C)C)NC(=O)[C@H](CC(C)C)NC(=O)[C@H](CC(C)C)NC(=O)[C@H](CC(C)C)NC(=O)[C@@H]1CCCN1C(=O)[C@H](CC(C)C)NC(=O)[C@H](CC(C)C)NC(=O)[C@@H]1CCCN1C(=O)[C@H](CC(C)C)NC(=O)[C@@H](N)CC(C)C)C(=O)NCC(=O)N[C@@H](C)C(=O)N[C@@H](CO)C(=O)O [Peptide 9019.0176] | naturally processed peptides
– | – | – | 4 | CC(C)C[C@H](NC(=O)[C@H](CC(C)C)NC(=O)[C@H](CC(C)C)NC(=O)[C@H](CC(C)C)NC(=O)[C@H](CC(C)C)NC(=O)[C@H](CC(C)C)NC(=O)[C@@H]1CCCN1)C(=O)NCC(=O)N[C@@H](C)C(=O)N[C@@H](CO)C(=O)NCC(=O)NCC(=O)NCC(=O)NCC(=O)NCC(=O)O [Peptide 9019.0177] | naturally processed peptides
– | – | – | 9 | CC[C@H](C)[C@H](NC(=O)[C@H](CC(C)C)NC(=O)[C@H](CCCCN)NC(=O)CNC(=O)[C@@H](N)[C@@H](C)O)C(=O)N[C@@H](CCC(N)=O)C(=O)NCC(=O)N[C@@H](C)C(=O)N1CCC[C@H]1C(=O)N[C@H](C(=O)N[C@H](C(=O)N[C@@H](CCCNC(=N)N)C(=O)NCC(=O)N[C@@H](CC(=O)O)C(=O)N1CCC[C@H]1C(=O)O)[C@@H](C)CC)[C@@H](C)O [Peptide 9019.0192] | naturally processed peptides
